The text below walks through data of patent US10233180B2, “Substituted nitrogen-containing heterocyclic derivatives, pharmaceutical compositions comprising the same and applications of antitumor thereof” (ZHEJIANG UNIVERSITY, priority 2014, dated 2019).

For one test, the target named is T1, Akt1 (Homo sapiens, UniProt P31749).
T1 construct: purchased 32-021
The test can be described thus: AKT1/PKBα KinEASE FP Fluorescein Green Assay (fluorescence polarization kinase kit). The conditions noted are these: 1 h reaction, read-out: Inhibitory activities against Akt1 (IC50). It counts as biochemical. Here is the method:
Second, method for determining the inhibitory activities of substituted nitrogen-containing heterocyclic derivatives in the present invention against Akt1 enzyme:
The inhibitory activities of compounds against AKT1/PKBα are determined by using AKT1/PKBα KinEASE™ FP Fluorescein Green Assay (Green fluorescence detection system of Kinase).
Principle adopted by the fluorescence polarization detection of protein kinase B is a competitive reaction: the phosphorylated tracers labeled with fluorescence will compete with unlabeled phosphorylated products produced by reacting with protein kinase B to combine anti-serine antibodies. […] However, in the reaction mixture containing phosphorylated products, fewer tracers will combine with antibodies (fluorescent tracers are replaced from the antibodies), and signals sent our occur depolarizing. Therefore, the change of polarization is directly related to the activity of protein kinase B in the reaction.
Each of 0.25 μl of compounds with a concentration of 50 μM and the positive control are added to a 384-well plate at room temperature, and each sample is provided with three parallel wells, and then 10 μl of STK Substrate 3 Working Solution, 5 μl of AKT1/PKBα Working Solution, 10 μl of ATP Working Solution are added to each sample respectively, the mixtures are slightly vibrated and shaked for a few minutes. Reaction is carried out just after the adding 10 μl of ATP Working Solution, from this time, reacting for 1 h. After 1 h, 5 μl of STK Stop Mix and 5 μl of STK Antibody Mix are added to each sample respectively to stop the reaction. The samples are maintained for 4 h at room temperature after adding is completed, the polarization values of samples are determined by fluorescence polarization of Microplate Reader (Detection of the signals is valid within 24 h), the inhibitory rate of compounds against the enzyme is calculated by polarization value, and thereby IC50 is calculated.
Experiment is set up four control groups at the same time, which are Buffer Control Wells, Tracer Control Wells, No Enzyme Wells and blank control of dimethyl sulfoxide, respectively. Thus obtained data are used to calculate the inhibitory rate (the preparation methods of above various solution required for determining the activities of compounds against enzyme refer to the specification of the kit of AKT1/PKBα KinEASE™ FP Fluorescein Green Assay Catalog #32-021).

In test [1] the test system is Human ovarian cancer cell strain OVCAR-8. The test can be described thus: MTT assay, inhibition of tumor cell growth in vitro, 72 h. It counts as cell-based. The conditions noted are these: OVCAR-8, MTT, read-out: Antitumor proliferative activities of tumor cell (IC50, μM) OVCAR-8. Here is the method:
(§1) First, inhibitory activity on tumor proliferation in vitro is determined and the structure activity relationship is preliminarily studied, in which different solid tumor cell strains are selected for determining the antitumor activities in vitro of the synthesized compounds.
(§2) Cell strains: Human ovarian cancer cell strain (OVCAR8), colon adenocarcinoma cell strain (HCT-116)
Medium: OVCAR8: RPMI 1640+Fetal Bovine Serum
(§3) Preparing method of medicines: Dissolving the medicine in DMSO to make a 50 mM stock solution, and diluting it according to a certain ratio to obtain 5 different concentrations.
(§4) Two selected tumor cells OVCAR8 and HCT-116 are incubated at 37° C. in a 5% CO2 incubator, which are subcultured when cells grow up to a density of 70˜90% (adherent cells are subcultured after digesting by Duck's EDTA) for later experiments.
(§5) Compounds are dissolved and diluted by dimethyl sulfoxide (DMSO), and tumor cells OVCAR8 and HCT-116 are seeded in a 96-well plate at a density of 4000 cells/200 μl/well, 1 μl of the compounds are added to each well with the final concentration of 50 μM, 10 μM, 2 μM, 0.4 μM and 0.08 μM, which is incubated for 72 h at 37° C. in a 5% CO2 incubator with DMSO (1%) as blank control.
(§6) The calculating formula of cell inhibitory rate is: cell inhibitory rate %=(the OD value of the control group−the OD value of the medication group)/the OD value of the control group×100%, the half maximal inhibitory concentration (IC50) is obtained by Bliss method.
(In general: Tetrazolium dyes change colour on reduction, which living cells bring about.)

Test [2] concerns human colon cancer cell strain HCT-116. Described as above. The conditions noted are these: HCT-116, MTT, read-out: Antitumor proliferative activities of tumor cell (IC50, μM) HCT-116 (converted). Type of test: cell-based. The protocol: as §1, §2
HCT-116: RPMI 1640+Fetal Bovine Serum
as §3, §4, §5, §6

Like-named read-outs stand apart in the source and are kept apart here.

T1 sequence (P31749 whole entry): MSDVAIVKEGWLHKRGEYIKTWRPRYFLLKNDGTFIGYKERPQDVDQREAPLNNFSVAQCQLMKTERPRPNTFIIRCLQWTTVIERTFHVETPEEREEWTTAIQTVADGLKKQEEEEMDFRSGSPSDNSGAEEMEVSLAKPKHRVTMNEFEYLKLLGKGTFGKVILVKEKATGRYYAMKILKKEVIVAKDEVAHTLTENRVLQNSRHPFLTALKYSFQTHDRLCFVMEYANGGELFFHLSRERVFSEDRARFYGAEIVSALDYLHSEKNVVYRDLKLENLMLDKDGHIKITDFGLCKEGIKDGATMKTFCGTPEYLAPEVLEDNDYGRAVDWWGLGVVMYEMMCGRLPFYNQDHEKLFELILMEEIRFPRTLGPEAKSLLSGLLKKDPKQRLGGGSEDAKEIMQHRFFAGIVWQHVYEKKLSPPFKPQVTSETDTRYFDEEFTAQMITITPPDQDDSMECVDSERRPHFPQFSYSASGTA

Consider `Cn1ncc(Cl)c1-c1cc(C(=O)N[C@H]2CNCC[C@@H]2c2ccc(Cl)cc2)oc1Cl` (racemic) [Compound 2, 5-chloro-4-(4-chloro-1-methyl-1H-pyrazol-5-yl)-N-(3,4-trans-4-(4-chlorphenyl)piperidin-3-yl)furan-2-formamide], for which the IC50 at Akt1 was 99 nM; in test [1] (Homo sapiens), 6.45 µM; in test [2] (Homo sapiens), 1.41 µM.
For `Cc1c(C(=O)N[C@H]2CNCC[C@@H]2C2CCCC(Cl)C2)sc(Cl)c1-c1ncnn1C` (stereo partly drawn) [Compound 18], in that order: 18 nM, 5.69 µM and 1.83 µM.
As for `Cn1ncc(Cl)c1-c1cc(C(=O)N[C@@H]2CNC(CC(=O)O)C[C@H]2c2ccc(Cl)c(Cl)c2)oc1Cl` (stereo partly drawn) [Compound 116, 2-((4S,5S)-5-(5-chloro-4-(4-chloro-1-methyl-1H-pyrazol-5-yl)furan-2-formamide)-4-(3,4-dichlorophenyl)piperidin-2-yl)acetic acid], the IC50 at Akt1 was 1 nM; in test [1] (Homo sapiens), 3.68 µM; in test [2] (Homo sapiens), 5.01 µM.
As for `Cn1ncc(Cl)c1-c1cc(C(=O)N[C@H]2CNCC[C@@H]2c2ccc(Cl)c(Cl)c2)oc1Cl` [Compound 39, 5-chloro-4-(4-chloro-1-methyl-1H-pyrazol-5-yl)-N-((3R,4R)-4-(3,4-dichlorophenyl)piperidin-3-yl)furan-2-formamide], the IC50 at Akt1 is 58 nM; in test [1] (Homo sapiens), 14.3 µM; in test [2] (Homo sapiens), 3.45 µM.
On to `Cn1ncc(Br)c1-c1csc(C(=O)N[C@@H]2CNCC[C@H]2c2ccc(F)c(F)c2)c1` [Compound 42, 4-(4-bromo-1-methyl-1H-pyrazol-5-yl)-N-((3S,4S)-4-(3,4-difluorophenyl)piperidin-3-yl)thiophene-2-formamide], for which the IC50 at Akt1 is 92 nM; in test [1] (Homo sapiens) it was 9.71 µM; in test [2] (Homo sapiens), 8.11 µM.
With “5-ethyl-1-methyl-4-(4-ethyl-1-methyl-1H-pyrazol-5-yl)-N-(3,4-trans-4-(piperidin-3-yl)piperidin-3-yl)-1H-pyrrole-2-formamide [Compound 17]”, the IC50 at Akt1 is 28 nM; in test [1] it was 1.43 µM; in test [2], 3.4 µM.
For the molecule `Cn1ncc(Cl)c1-c1csc(C(=O)N[C@H]2CNCC[C@@H]2c2ccc(Cl)cc2)c1` (racemic) [Compound 35, 4-(4-chloro-1-methyl-1H-pyrazol-5-yl)-N-(3,4-trans-4-(4-chlorphenyl)piperidin-3-yl)thiophene-2-formamide], the IC50 at Akt1 is 120 nM; in test [1] (Homo sapiens) it was 4.61 µM; in test [2] (Homo sapiens), 11.5 µM.
On to `CCc1sc(C(=O)N[C@H]2CNCC[C@@H]2c2cnc3c(c2)CCC(C)C3)cc1-c1c(C(C)C)cnn1C` (stereo partly drawn) [Compound 14, 5-ethyl-4-(4-isopropyl-1-methyl-1H-pyrazol-5-yl)-N-(3,4-trans-4-(7-methyl-5,6,7,8-tetrahydroquinolin-3-yl)piperidin-3-yl)thiophene-2-formamide], for which the IC50 at Akt1 is 5 nM; in test [1] (Homo sapiens) it was 3.68 µM; in test [2] (Homo sapiens), 3.78 µM.
For `Cn1nccc1-c1ccc(C(=O)N[C@@H]2CNCC[C@H]2c2ccc(F)c(F)c2)cc1` [Compound 77, N-((3S,4S)-4-(3,4-difluorophenyl)piperidin-3-yl)-4-(1-methyl-1H-pyrazol-5-yl)benzamide], the IC50 on Akt1 was 18 nM; in test [1] (Homo sapiens), 3.68 µM; in test [2] (Homo sapiens), 2.81 µM.
As to `Cn1ncc(Cl)c1-c1cc(C(=O)N[C@@H]2CNC(CC(=O)NCCO)C[C@H]2c2ccc(Cl)c(Cl)c2)oc1Cl` (stereo partly drawn) [Compound 125, 5-chloro-4-(4-chloro-1-methyl-1H-pyrazol-5-yl)-N-((3S,4S)-4-(3,4-dichlorophenyl)-6-(2-((2-hydroxyethyl)amido)-2-oxoethyl)piperidin-3-yl)furan-2-formamide], the IC50 at Akt1 is 0.1 nM; in test [1] (Homo sapiens) it was 0.12 µM; in test [2] (Homo sapiens), 1.25 µM.
For `Cn1ncc(Br)c1-c1csc(C(=O)N[C@H]2CNCC[C@@H]2c2ccc(Cl)cc2)c1` (racemic) [Compound 37, 4-(4-bromo-1-methyl-1H-pyrazol-5-yl)-N-(3,4-trans-4-(4-chlorphenyl)piperidin-3-yl)thiophene-2-formamide], in that order: 52 nM, 5.36 µM and 2.24 µM.
As to `Cc1cc(-c2c(Cl)cnn2C)cc(C(=O)N[C@H]2CNCC[C@@H]2c2ccccc2)n1` (relative stereo) [Compound 45, 6-methyl-4-(4-chloro-1-methyl-1H-pyrazol-5-yl)-N-(3,4-trans-4-phenylpiperidin-3-yl)pyridinyl-2-formamide], the values for the half-inhibitory concentration (IC50) (at Akt1; in test [1] (Homo sapiens); in test [2] (Homo sapiens)) were 812 nM, 2.01 µM and 12.6 µM, respectively.
Consider `Cc1cc(C(=O)N[C@@H]2CNC(CCN3CCCCC3)C[C@H]2c2ccc(F)c(F)c2)ccc1-c1c(Cl)cnn1C` (stereo partly drawn) [Compound 102, 4-(4-chloro-1-methyl-1H-pyrazol-5-yl)-N-((3S,4S)-4-(3,4-difluorophenyl)-6-(2-(piperidin-1-yl)ethyl)piperidin-3-yl)-3-methylbenzamide], for which the results for the IC50 (on Akt1; in test [1] (Homo sapiens); in test [2] (Homo sapiens)) were 8 nM, 0.34 µM and 0.8 µM, respectively.
Consider `CCc1c(-c2ncnn2C)c(Br)n(C)c1C(=O)N[C@H]1CNCC[C@@H]1c1cccc(C(F)(F)F)c1` (racemic) [Compound 4, 5-bromo-3-ethyl-1-methyl-4-(1-methyl-1H-1,2,4-triazol-5-yl)-N-(3,4-trans-4-(3-trifluoromethylphenyl)piperidin-3-yl)-1H-pyrrole-2-formamide], for which the IC50 at Akt1 is 48 nM; in test [1] (Homo sapiens), 5.19 µM; in test [2] (Homo sapiens), 15.6 µM.
As for `Cn1ncc(Cl)c1-c1cc(C(=O)N[C@@H]2CNC(CCN3CCCCC3)C[C@H]2c2ccc(Cl)c(Cl)c2)oc1Cl` (stereo partly drawn) [Compound 108, 5-chloro-4-(4-chloro-1-methyl-1H-pyrazol-5-yl)-N-((3S,4S)-4-(3,4-dichlorophenyl)-6-(2-(piperidin-1-yl)ethyl)piperidin-3-yl)furan-2-formamide], the IC50 at Akt1 was 9 nM; in test [1] (Homo sapiens) it was 2.04 µM; in test [2] (Homo sapiens) it was 0.57 µM.
As to `Cn1ncc(Cl)c1-c1cc(C(=O)N[C@@H]2CNC(CC(=O)NCC(O)CO)C[C@H]2c2ccc(Cl)c(Cl)c2)oc1Cl` (stereo partly drawn) [Compound 121, 5-chloro-4-(4-chloro-1-methyl-1H-pyrazol-5-yl)-N-((3S,4S)-4-(3,4-dichlorophenyl)-6-(2-((2,3-dihydroxypropyl)amido)-2-oxoethyl)piperidin-3-yl)furan-2-formamide], the values for the IC50 (at Akt1; in test [1] (Homo sapiens); in test [2] (Homo sapiens)) were 5 nM, 0.74 µM and 0.36 µM, respectively.
For `Cc1cnn(C)c1-c1cnc(C(=O)N[C@H]2CNCC[C@@H]2c2ccc[nH]2)nc1C` (racemic) [Compound 60, 4-methyl-5-(1,4-dimethyl-1-methyl-1H-pyrazol-5-yl)-N-(3,4-trans-4-(pyrrole-2-yl)piperidins-3-yl)pyrimidine-2-formamide], the IC50 on Akt1 is 972 nM; in test [1] (Homo sapiens), 6.01 µM; in test [2] (Homo sapiens), 2.27 µM.

The IC50 is the concentration that inhibits the measured activity by half.
